# Data: publication PMC11292009, “Mapping protein binding sites by photoreactive fragment pharmacophores” (Communications Chemistry, 2024)
# Experiments:
# Format in all cases: binding
# [1] = system: carbonic anhydrase II (CA); assay: Intact protein MS photoaffinity labeling screen, carbonic anhydrase; settings: intact protein MS after 10 min irradiation
# Outline: (§1)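 Plate format, one fragment/well; 15 min incubation with protein for non-covalent complex formation; direct intact-protein MS read from plate; labeling % from adduct mass additions.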
# BRD4-BD1 = system: T1, BRD4-BD1; assay: Intact MS photoaffinity labeling screen, BRD4-BD1 (302 nm, LCMS-TOF); settings: for MS labeling percentage, BRD4: BRD4-BD1, 302 nm 10 min
# T1 construct: screened the PhP library against the first bromodomain of BRD4 (BRD4-BD1); purchased GSK/GenScript
# Outline: (§2)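 Labeling detected as mass additions in deconvoluted intact-protein LCMS-TOF spectra. Protein at 1 μM in PBS was first mixed with one fragment per well on ice for 15 min, followed by 10 min UV exposure at 302 nm.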
# KRas^G12D = system: T2, KRas^G12D; assay: Intact MS photoaffinity labeling screen, KRas G12D (302 nm, LCMS-TOF); settings: for MS labeling percentage, KRas: KRas G12D, 302 nm 10 min
# T2 construct: purchased GSK/GenScript
# Outline: as §2
# lysozyme (Lyo) = assay: Intact protein MS photoaffinity labeling screen, lysozyme; settings: intact protein MS after 10 min irradiation
# Outline: as §1
# myoglobin (Myo) = assay: Intact protein MS photoaffinity labeling screen, myoglobin; settings: intact protein MS after 10 min irradiation
# Outline: as §1
# STAT5B-NTD [2] = system: T3, STAT5B-NTD; assay: Intact MS photoaffinity labeling screen, STAT5B-NTD (365 nm, UHPLC-MS); settings: for MS labeling percentage, STAT5B: STAT5B-NTD, 365 nm 10 min, no photocatalyst;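 on MS labeling percentage, STAT5B: 0.17 µL of 100 mM DMSO fragment stock added to the protein sample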
# T3 construct: His-SUMO (N, cleaved yes); made in house; host or cells: E. coli BL21 RILP
# Outline: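 Intact-protein labeling detected by UHPLC-MS in positive ion mode over m/z 100–2000. Samples were first photo-crosslinked at 365 nm for 10 min at 4 °C. Before irradiation, 7 µM STAT5B in PBS pH 7.4 was pre-incubated with probe for 1 h in the dark at room temperature.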
# STAT5B-NTD [3] = system: T3, STAT5B-NTD; assay: Intact MS labeling screen, STAT5B-NTD conjugated with photocatalyst Ir-G2-PEG3-COOH (450 nm); settings: 450 nm 10 min;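 further: 0.14 µL of 100 mM DMSO fragment stock added to the conjugate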
# Outline: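 Ir-G2-PEG3-COOH photocatalyst (10 eq) activated 30 min with EDC/NHS/BOP, then conjugated to STAT5B-NTD (7 µM) overnight at RT or 1 h at 37 °C in dark. PhP added, 1 h dark, then 450 nm irradiation 10 min at 4 °C; labeling read by intact LC-MS, positive ion mode, m/z 100–2000.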
# [4] = hit flag 1/0, sheet PhP, photoaffinity labeling screen
# [5] = sheet PhP, experimental hit status flag given as 0 or 1
Structure (SMILES),"MS labeling percentage, CA [1] [%]","MS labeling percentage, BRD4 (BRD4-BD1) [%]",BRD4-BD1 (experimental hit status) (BRD4-BD1; [4]),"MS labeling percentage, KRas (KRas^G12D) [%]",KRAS-G12D (experimental hit status) (KRas^G12D; [4]),"MS labeling percentage, Lyo (lysozyme (Lyo)) [%]","MS labeling percentage, Myo (myoglobin (Myo)) [%]","MS labeling percentage, STAT5B (STAT5B-NTD [2]) [%]",STAT5B-NTD (experimental hit status) (STAT5B-NTD [2]; [4]),"MS labeling percentage, STAT5B+photocat (STAT5B-NTD [3]) [%]",BRD4-BD1 (experimental hit status) (BRD4-BD1; [5]),KRAS-G12D (experimental hit status) (KRas^G12D; [5]),STAT5B-NTD (experimental hit status) (STAT5B-NTD [2]; [5])
"CC1(CCC(=O)NCC(C)(C)NS(C)(=O)=O)N=N1 [PhP045, CS(=O)(=O)NC(C)(C)CNC(=O)CCC1(C)N=N1]",0.5,0.4,0,0.2,0,0,0.2,0,0,2.3,–,–,–
"CC(C)CN1CCOC(CNC(=O)CCC2(C)N=N2)C1 (centres unmarked) [PhP046, CC(C)CN1CCOC(C1)CNC(=O)CCC2(C)N=N2]",0.2,0.1,0,0.2,0,0,0.3,1,0,0.7,–,–,–
"CC1(CCC(=O)NC2CCc3nccn3C2)N=N1 (centres unmarked) [PhP047, N1=NC1(C)CCC(=O)NC(CC2)Cn(c23)ccn3]",0.6,0.5,0,0.1,0,0,0,0,0,2.1,–,–,–
"CC1(CCC(=O)Nc2sc3c(c2C(N)=O)CCC(C(C)(C)C)C3)N=N1 (centres unmarked) [PhP049, CC(C)(C)C(CC1)Cc(c12)sc(c2C(=O)N)NC(=O)CCC3(C)N=N3]",0.2,0,0,0.1,0,0,0.1,1,0,2,–,–,–
"CC1(CCC(=O)NCCCn2ccnc2)N=N1 [PhP050, N1=NC1(C)CCC(=O)NCCCn2ccnc2]",0.3,0.4,0,0.6,0,0,0.2,1,0,0.4,–,–,–
"CC1(CCC(=O)NCCSCc2ccccc2)N=N1 [PhP051, N1=NC1(C)CCC(=O)NCCSCc2ccccc2]",1,0.2,0,0,0,0,0.1,0,0,1,–,–,–
"CC1(CCC(=O)NCc2ccc(-c3cncnc3)cc2)N=N1 [PhP052, N1=NC1(C)CCC(=O)NCc2ccc(cc2)-c3cncnc3]",1.2,1.5,0,1.3,0,0,1.3,1,0,11.4,–,–,–
"CC1(CCC(=O)Nc2ccc(N3CCCCC3)cc2C(N)=O)N=N1 [PhP054, N1=NC1(C)CCC(=O)Nc2ccc(cc2C(=O)N)N3CCCCC3]",0,0.6,0,0,0,0,0,2.9,0,9.8,–,–,–
"CN(C)Cc1nc2ccc(NC(=O)CCC3(C)N=N3)cc2o1 [PhP055, CN(C)Cc(n1)oc(c12)cc(cc2)NC(=O)CCC3(C)N=N3]",0,0.7,0,0.3,0,0,0,0,0,0.8,–,–,–
"CC1(CCC(=O)NCCCN2CCN(C(=O)OC(C)(C)C)CC2)N=N1 [PhP056, CC(C)(C)OC(=O)N1CCN(CC1)CCCNC(=O)CCC2(C)N=N2]",0.3,0.2,0,0,0,0,0,0,0,1.2,–,–,–
"CC1(CCC(=O)NCc2c(O)ccc3ccccc23)N=N1 [PhP057, N1=NC1(C)CCC(=O)NCc(c(O)cc2)c(c23)cccc3]",0.4,1.6,0,1.1,0,2.2,0.7,0,0,3.4,–,–,–
"CC1(CCC(=O)N[C@@H](Cc2ccc(O)cc2)C(N)=O)N=N1 [PhP058, N1=NC1(C)CCC(=O)N[C@H](C(=O)N)Cc2ccc(O)cc2]",0,0.4,–,0,–,1.2,0.1,1,–,0.5,0,0,0
"CC1(CCC(=O)NCc2cccc(C(N)=O)c2)N=N1 [PhP059, N1=NC1(C)CCC(=O)NCc2cccc(c2)C(=O)N]",0.6,0.7,–,0.8,–,0,0.7,1,–,0.3,0,0,0
"Cc1n[nH]c(C)c1CCNC(=O)CCC1(C)N=N1 [PhP061, Cc1n[nH]c(C)c1CCNC(=O)CCC2(C)N=N2]",0.2,0.2,–,0.1,–,0,0.2,1,–,0,0,0,0
